Measured values taken from patent US20250213550A1, “COMPOUNDS AND METHODS FOR TREATING INFLAMMATORY BOWEL DISEASE” (Gilead Sciences, Inc., priority 2023, published 2025).
Like-named read-outs stand apart in the source and are kept apart here.

Assay: Food effect on Compound A plasma PK after single dose Compound 1 600 mg
Type: in vivo, human
Conditions: for Tmax: 600 mg, read-out: median Tmax
Procedure: A Phase 1, open-label, single-center, multiple-cohort study was conducted to evaluate the effect of a mixed OATP/P-gp inhibitor (cyclosporine A; CsA) or food on the PK of Compound 1, the effect of Compound 1 on the PK of midazolam (MDZ), the effect of Compound 1 on the PK of OATP/CYP3A/BCRP substrates using atorvastatin (ATV), pravastatin (PRA), and rosuvastatin (ROS), and the effect of Compound 1 on the PK of a representative combined oral contraceptive (drospirenone/ethinyl estradiol; DRSP/EE), in healthy participants. 70 participants ages 18 to 55 years (inclusive) and having BMI of ≥18.0 kg/m^2 and ≤30.0 kg/m^2 were enrolled. For Cohorts 1-3, there were an approximately even distribution of healthy participants assigned male at birth and nonpregnant, nonlactating participants assigned female at birth. Cohort 4 included only healthy, nonpregnant, nonlactating participants assigned female at birth.
Participants in Cohort 1 were randomized to 1 of 2 treatment sequences (ABC or BAC), in a 1:1 ratio.
Treatment A: Single dose of Compound 1 600 mg, administered in the AM, under fasted conditions
Treatment B: Single dose of Compound 1 600 mg, administered in the AM, within 5 minutes of completing a high-fat/high-calorie meal
• Periods 1, 2, and 3: Day 1, 0 (pre-dose, ≤5 min before dose), 0.25, 0.5, 1, 1.5, 2, 3, 4, 6, 8, 12, 18, 24, 36, 48, 72, and 96 hours post-dose; and at the early termination (ET) visit, as applicable
Concentrations of Compound 1 and its active metabolites Compound A and Compound B, MDZ and its metabolite 1-OH-MDZ, ATV and its metabolite 2-OH-ATV, PRA, ROS, DRSP, and EE in plasma PK samples were determined by validated high performance liquid chromatography tandem mass spectrometry (LC-MS/MS) bioanalytical methods.
Pharmacokinetic parameters were determined for Compound 1 and its metabolites for all cohorts, MDZ and 1-OH-MDZ for Cohort 2; ATV, 2-OH-ATV, PRA, and ROS for Cohort 3; and DRSP and EE for Cohort 4.

[1] = Compound 1 600 mg single dose, vs fasting

Which “change in Cmax by high-fat/high-calorie meal” value [1] does the source give for `Cn1ccc2c([C@H](Nc3cc(Cl)c4ncc(C#N)c(NCC(C)(C)C)c4c3)c3cn(C45CC(C4)C5)nn3)cccc2c1=O` [Compound A] here?
Its value is “no change”.

What about the “increase of AUCinf by high-fat/high-calorie meal” value [1] of the same compound?
The value was 92%.

And the Tmax (both sexes, human, plasma, oral, Compound 1 600 mg single dose, fasting)?
Its Tmax is 4 h.

And the Tmax (both sexes, human, plasma, oral, Compound 1 600 mg single dose, with a high-fat/high-calorie meal)?
The Tmax was 5 h.

What about the AUC(0-inf) (both sexes, human, plasma, oral, Cpd 1 600 mg single dose, fasting, Treatment A, mean) of the same compound?
The AUC(0-inf) was 46300 ng·h/mL.

What about the “AUCinf % GLSM Ratio” value (non-fasting (test) vs fasting (reference), Cpd 1 600 mg) of the same compound?
The value was 192%.
